For data set [1] the following is noted: background knowledge; cited from earlier work.
Data set [2] in a line: Comparative bioavailability test in 10 subjects, plasma N-acetylcysteine by HPLC (tributyl phosphine reduction, o-phthalaldehyde post-column derivatization), oral 200 mg. The source says:
A process for quantitative determination of N-acetylcysteine in plasma was used, which split the active ingredient with tributyl phosphine reductively and derivatized in with a post-HPLC column using o-phthalaldehyde.
The comparative test is documented in Biopharmaceutics & Drug Disposition, Vol. 12, 343-353 (1991).

As for `N[C@@H](CSCC(=O)O)C(=O)O` [carbocysteine, S-(carboxymethyl)-L-cysteine], in data set [1], the main effect entry was “expectorant” and the tolerability entry was “very well tolerated”.

Take `CC(=O)N[C@@H](CS)C(=O)O` [N-acetylcysteine]: the “endogenous average concentrations in plasma” value in data set [2] (human, in vivo) amounted to 0.08 µM. Further, in data set [2] (one 200 mg dose, oral, up to), the “Cmax relative to endogenous plasma values” is recorded as “up to 20 times”. In addition, in data set [1], the main effect result is listed as “expectorant” and the tolerability entry was “very well tolerated”.

The values above are taken from patent US5401514A, “Solid, fast-soluble pharmaceutical preparation containing S-(carboxymethyl)-L-cysteine and/or N-acetylcysteine” (Spirig AG, Pharmazeutische Praeparate, priority 1990, dated 1995).
